US20140066475A1, “Method For Treating Pruritus” (Euro-Celtique S.A., priority 2012, published 2014)
Structures can show the parent of a compound that is named as a salt. Marks after values point to notes of the source that are not given here.

Key:
adult male CD-1 mice = assay: In vivo itch response assay (Compound 48/80-induced scratching); settings: for Effect on scratch response: given 20 min before pruritogen Compound 48/80
Experimental: In Vivo Model and Procedures:
An in vivo model was devised and implemented to evaluate the antipruritic activity of compounds in mice. Compound 48/80 (Sigma Chemical), a known pruritogen in mice, was mixed in a 0.9% saline vehicle and administered to various cohorts of adult male CD-1 mice by s.c. injection at the nape of the neck at dosage levels of 12.5, 25, 50 and 100 μg. The saline vehicle alone was used as a control. The mice were monitored visually and scratching bouts were counted over the ensuing 30 minutes.
Next, test benzomorphan Compound #1 (see Examples 1 and 2 above) was given in various doses (Table 3 below) in the rear flank 20 minutes prior to pruritogen injection in the same manner as the Nalfurafine.

μ-opioid receptor = μ-opioid receptor (Homo sapiens, UniProt P35372); assay: μ-opioid receptor [35S]GTPγS functional assay; type: biochemical
μ-opioid receptor, sequence (P35372 whole entry, species assumed): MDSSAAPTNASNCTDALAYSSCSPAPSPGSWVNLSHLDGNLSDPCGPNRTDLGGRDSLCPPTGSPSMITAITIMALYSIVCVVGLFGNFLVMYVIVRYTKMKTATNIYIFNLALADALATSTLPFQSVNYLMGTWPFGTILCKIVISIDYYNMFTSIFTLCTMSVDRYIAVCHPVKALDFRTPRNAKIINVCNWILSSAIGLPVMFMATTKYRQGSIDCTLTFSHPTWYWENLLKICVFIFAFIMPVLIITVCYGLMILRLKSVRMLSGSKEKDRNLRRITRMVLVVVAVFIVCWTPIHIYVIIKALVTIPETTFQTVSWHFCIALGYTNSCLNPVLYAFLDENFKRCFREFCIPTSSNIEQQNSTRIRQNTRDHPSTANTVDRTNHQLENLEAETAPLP
Source text: Measures of a compound's activity at a given receptor are given by GTP Emax and GTP EC50. GTP Emax (%) is the maximal effect elicited by a compound relative to the effect elicited by a standard, known agonist compound. GTP EC50 is the concentration of a compound providing 50% of the maximal response for that compound at a given receptor. For MOR, the μ GTP Emax (%) is the maximal effect elicited by a compound relative to the effect elicited by the standard MOR agonist [D-Ala^2, N-methyl-Phe^4 Gly-ol^5]-enkephalin (a/k/a DAMGO). Generally, the μ GTP Emax (%) value measures the efficacy of a compound to treat or prevent pain or diarrhea.
μ-Opioid Receptor Functional Assay Procedures:
[^35S]GTPγS functional assays were conducted using freshly thawed μ-receptor membranes. Assay reactions were prepared by sequentially adding the following reagents to binding buffer (100 mM NaCl, 10 mM MgCl2, 20 mM HEPES, pH 7.4) on ice (final concentrations indicated): membrane protein (0.026 mg/mL), saponin ([…]), GDP ([…]) and [^35S]GTPγS (0.20 nM; NEN). […] BetaScint scintillation cocktail (Wallac, Turku, Finland) was added (50 μl/well) and plates were counted using a Packard Top-Count for 1 min/well. Data were analyzed using the sigmoidal dose-response curve fitting functions in GraphPad PRISM v. […]

kappa opioid receptor = molecular target: T1, kappa opioid receptor (Homo sapiens, UniProt P41145); assay: κ-opioid receptor [35S]GTPγS functional assay; type: biochemical; settings: relative to U69,593; read-out: GTPγS κ Emax [mean ± SEM]
T1 construct: expressed in transfected cells; host or cells: HEK-293
T1 sequence (P41145 whole entry): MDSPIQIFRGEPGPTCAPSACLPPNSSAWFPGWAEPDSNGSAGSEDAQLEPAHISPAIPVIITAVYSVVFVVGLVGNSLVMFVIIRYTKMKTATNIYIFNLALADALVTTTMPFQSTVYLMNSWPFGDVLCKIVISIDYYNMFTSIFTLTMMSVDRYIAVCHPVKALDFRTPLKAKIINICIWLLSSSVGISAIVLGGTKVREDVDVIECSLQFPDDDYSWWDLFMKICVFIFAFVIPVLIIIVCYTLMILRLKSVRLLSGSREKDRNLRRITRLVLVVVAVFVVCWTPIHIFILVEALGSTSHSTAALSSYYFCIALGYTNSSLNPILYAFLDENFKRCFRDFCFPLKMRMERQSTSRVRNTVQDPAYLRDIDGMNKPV
Experimental: Similarly for KOR, the κ GTP Emax (%) is the maximal effect elicited by a compound relative to the effect elicited by the known κ-agonist, U69,593.
κ-Opioid Receptor Functional Assay Procedures:
Functional [^35S]GTPγS binding assays were conducted as follows. Kappa opioid receptor membrane solution was prepared by sequentially adding final concentrations of 0.026 μg/μl kappa membrane protein (in-house), 10 μg/mL saponin, 3 μM GDP and 0.20 nM [^35S]GTPγS to binding buffer (100 mM NaCl, 10 mM MgCl2, 20 mM HEPES, pH 7.4) on ice. The prepared membrane solution (190 μl/well) was transferred to 96-shallow well polypropylene plates containing 10 μl of 20× concentrated stock solutions of agonist prepared in DMSO. Plates were incubated for 30 min at a temperature of about 25° C. with shaking. Reactions were terminated by rapid filtration onto 96-well Unifilter GF/B filter plates (Packard) using a 96-well tissue harvester (Packard) and followed by three filtration washes with 200 μl ice-cold […] (10 mM NaH2PO4, 10 mM Na2HPO4, pH 7.4). Filter plates were subsequently dried at 50° C. for 2-3 hours. Fifty μl/well scintillation cocktail (MicroScint20, Packard) was added and plates were counted in a Packard Top-Count for 1 min/well.

Row | Structure (SMILES) | Total # Scratching Bouts in 30 mins (mean ± S.E.M.) (adult male CD-1 mice; 0.04 mg/kg s.c. 20 min before Compound 48/80 (0.5 mg/kg)) | Effect on scratch response (adult male CD-1 mice) | EC50 (μ-opioid receptor) [µM] | Emax (μ-opioid receptor; relative to DAMGO, read-out: GTPγS μ Emax [mean ± SEM]) [%] | Total # Scratching Bouts in 30 mins (mean ± S.E.M.) (adult male CD-1 mice; 3 mg/kg in rear flank 20 min before Compound 48/80 (0.5 mg/kg)) | Total # Scratching Bouts in 30 mins (mean ± S.E.M.) (adult male CD-1 mice; 10 mg/kg in rear flank 20 min before Compound 48/80 (0.5 mg/kg)) | Total # Scratching Bouts in 30 mins (mean ± S.E.M.) (adult male CD-1 mice; 30 mg/kg in rear flank 20 min before Compound 48/80 (0.5 mg/kg)) | Emax (kappa opioid receptor) [%]
1 | CN(C(=O)/C=C/c1ccoc1)[C@@H]1CC[C@@]2(O)[C@H]3Cc4ccc(O)c5c4[C@@]2(CCN3CC2CC2)[C@H]1O5 [Nalfurafine, Nalfurafine HCl, reference compound] | 25.6 ± 7.92^d | dose dependent reduction in scratch response |  |  |  |  |  | 
2 | C=CC[N+]1(C)CCC2(C)c3cc(O)ccc3C[C@@H]1[C@@H]2C.[I-] (stereo partly drawn) [Compound #1] |  | alleviated pruritus by reducing the mean number of scratching bouts | > 20 | 3.67 ± 1.33 | 155.8 ± 13.73^a | 129.4 ± 16.18^b | 70.8 ± 19.74^c | 27.3 ± 3.38
